Data on one molecule can be found in publication PMC8280112, “Substrate reduction therapy for Krabbe disease and metachromatic leukodystrophy using a novel ceramide galactosyltransferase inhibitor” (Scientific Reports, 2021).

Series [1] has as its target T1, UGT1A (Homo sapiens, UniProt P22309).
T1 construct: purchased Eurofins Panlabs Taiwan, Ltd. ITEM 196000
T1 sequence (P22309 26-533): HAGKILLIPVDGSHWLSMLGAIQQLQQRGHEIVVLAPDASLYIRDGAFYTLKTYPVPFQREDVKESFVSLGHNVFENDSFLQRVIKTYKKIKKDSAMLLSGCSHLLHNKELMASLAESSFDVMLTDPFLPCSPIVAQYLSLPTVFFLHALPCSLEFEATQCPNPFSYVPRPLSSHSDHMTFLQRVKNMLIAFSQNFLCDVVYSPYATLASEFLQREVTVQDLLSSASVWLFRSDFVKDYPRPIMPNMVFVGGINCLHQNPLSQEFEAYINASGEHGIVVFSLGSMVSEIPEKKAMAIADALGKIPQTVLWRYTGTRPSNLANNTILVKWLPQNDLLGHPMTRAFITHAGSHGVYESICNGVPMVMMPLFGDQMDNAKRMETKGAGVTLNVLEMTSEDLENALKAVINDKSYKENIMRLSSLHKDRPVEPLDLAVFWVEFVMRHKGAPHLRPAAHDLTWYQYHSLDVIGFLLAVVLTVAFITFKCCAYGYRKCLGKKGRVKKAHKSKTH
Put plainly: UDP glucuronosyltransferase assay (Eurofins Panlabs). The series is classed as biochemical. As to the method:
UGT1A activity was evaluated at Eurofins Panlabs Taiwan, Ltd. ITEM 196000.

Series [2] addresses T2, Recombinant human galactosylceramidase (GALC) (Homo sapiens, UniProt P54803).
T2 construct: purchased R&D Systems
T2 sequence (P54803 43-685): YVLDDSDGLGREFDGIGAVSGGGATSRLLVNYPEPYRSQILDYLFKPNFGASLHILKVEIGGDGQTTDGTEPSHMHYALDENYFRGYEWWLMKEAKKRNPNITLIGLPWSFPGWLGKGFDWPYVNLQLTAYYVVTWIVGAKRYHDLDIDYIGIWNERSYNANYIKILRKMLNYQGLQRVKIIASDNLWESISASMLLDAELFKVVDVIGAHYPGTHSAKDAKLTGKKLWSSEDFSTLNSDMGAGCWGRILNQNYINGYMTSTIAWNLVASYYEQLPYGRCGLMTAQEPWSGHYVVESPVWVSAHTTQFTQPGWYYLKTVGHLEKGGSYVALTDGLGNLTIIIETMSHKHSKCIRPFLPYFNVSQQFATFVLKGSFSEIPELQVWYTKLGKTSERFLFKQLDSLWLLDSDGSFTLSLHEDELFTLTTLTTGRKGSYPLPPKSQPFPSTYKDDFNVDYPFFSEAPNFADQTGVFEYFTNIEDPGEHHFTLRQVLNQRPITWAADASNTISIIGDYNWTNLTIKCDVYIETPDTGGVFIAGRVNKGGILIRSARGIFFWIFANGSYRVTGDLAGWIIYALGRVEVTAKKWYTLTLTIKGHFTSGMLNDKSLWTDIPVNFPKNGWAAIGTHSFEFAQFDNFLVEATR
Kind of series: Galactosylceramidase assay. The series is classed as biochemical. From the text: Recombinant human galactosylceramidase (R&D Systems) activity was monitored using the artificial fluorescent substrate 4-methylumbelliferyl-β-D-galactopyranoside (Sigma) using the assay conditions described on the enzyme product datasheet.

The subject of series [3] is Sphingomyelin synthase (SMS). Put plainly: Sphingomyelin synthase assay. The series is classed as biochemical. As to conditions: MDCK cell lysate. How it is done: 100 µL assay buffer (50 mM Tris buffer pH 7.5 containing 25 mM KCl, 0.5 mM EDTA, 10 µM NBD-C6 ceramide, 100 µM DOPC, and 0.01% Tween 80), 60 µg MDCK cell lysate, and serial diluted compounds were incubated at 37 ℃ for 1 h. The reaction was terminated and prepared for LC–MS using the same protocol as the GCS assay, however, a NBD-C6-sphingomyelin (Avanti) reference standard was used to quantify the sphingomyelin synthesis.

Series [4] concerns wild-type C57BL/6 mice. Kind of series: PND3 wild-type mouse repeat dose study: tolerability. The series is classed as in vivo.
Series [5] concerns GalCer and sulfatide levels. Put plainly: PND3 wild-type mouse repeat dose study: LC-MS of GalCer and sulfatide in brain and sciatic nerve. Type of series: in vivo. The following applies: wild-type mice. As to the method: Animals were euthanized by exsanguinations under deep anesthesia, the brain and sciatic nerve were removed, rinsed in cold saline, dried, and snap frozen for lipid quantification.
Whole brain was homogenized in 3 volumes H2O (v/w) and further diluted as necessary in H2O. Given the small size, the sciatic nerve weight was recorded and homogenized in a larger fixed volume. 25 µL of diluted homogenate was added to 35 µL DMSO, 200 µL of methanol, and 325 µL acetone/methanol (50/50) and vortexed approximately 30 min. Next, 150 µL water and 300 µL water/methanol (13/87) were added before centrifuging for 5 min at RT at 14,000 rpm. […] supernatant was transferred onto a pre-conditioned C18-SPE cartridge, washed with 2 mL methanol/acetone/water (67/23/10), and eluted with 1.5 mL acetone/methanol (90/10). The eluate was dried before reconstituting with 50 µL DMSO (including N-C16:0-CD3-Glucosylceramide, IS Matreya) and 200 ACN. 3 µL of suspension was injected into LC–MS/MS for analysis. GalCers were separated from isobaric GluCers by Halo-Hilic (4.6 × 150 mm, 2.7 µm) column with a mobile phase of 95/2.5/2.5 ACN/MeOH/H2O (with 0.5 FA + 5 mM NH4OAc) 100% for 9.5 min at 50 °C and a 0.50 mL/min flow rate. Non-hydroxy-GalCer and 2-hydroxy-GalCer were detected using MRM on an LC–MS/MS (Agilent 6410) in positive ESI mode. Purified non-hydroxy-GalCer (Kerasin, Matreya) or 2-hydroxy-GalCer (Phrenosin, Matreya) were used as reference standards. All non-hydroxy-GalCer or 2-hydroxy-GalCer species identified in the reference standards were summed, normalized to the IS, and reported as percentage of vehicle control (Fig. 2B,C). In Supplementary Figure S1, individual acyl chains were identified, normalized to the IS, and plotted as percentage of vehicle control.
Previously diluted brain homogenate was serially diluted (10 µL into 90 µL and then 20 µL into 80 µL) in ACN/H2O (v/v 1:1) before being added to 300 µL ACN with IS (N-C18:0-CD3-sulfatide, Matreya). […] Non-hydroxy-sulfatide and 2-hydroxy-sulfatide were detected using MRM on a UPLC-MS/MS-22 (Triple Quad 6500) in positive ESI mode. […]

pIC50: −log10 of the molar value.

On to `C[C@H]1N(c2ccc(Br)cc2)C(=O)N(c2ccc(Br)cc2)C1(O)c1cccc(OC(F)(F)F)c1` (some centres unmarked) [S202], for which the results for the negative logarithm of the IC50 (pIC50) in series [1], in series [2] and in series [3] were less than 4.52, less than 4.30 and less than 4.30, respectively. Further, the phenotypes entry in series [4] (daily IP PND3 to PND40, above 0.5 mg/kg) was “reduced weight gain, mild hind limb gait abnormalities, and some animal deaths”. The tolerability entry in series [4] (daily IP PND3 to PND40, lower doses) is “well tolerated at lower doses”. Moreover, the “GalCer synthesis in the brains” value in series [5] (higher doses (> 1.5 mg/kg)) was “reduced synthesis of both non-hydroxy-GalCer and 2-hydroxy-GalCer”. Also, the “2-hydroxy-GalCer levels in the brains” value in series [5] (lower doses) is recorded as “consistently increase”. Besides, the “non-hydroxy-GalCer levels in the brains” value in series [5] (lower doses (0.015 to 0.5 mg/kg)) is “greatly decreased”.

The term pIC50 denotes the IC50 on a negative log10 scale, so that one unit is a factor of ten.
